Tests used:
[1] = system: Feces enterococci (VSE clinical isolates: MEFA 0039); experiment: In vitro antibacterial activity, agar two times dilution method, MIC; type: cell-based; conditions: agar dilution; VSE clinical isolate MEFA 0039
Source text: (§1) Testing results of in vitro antibacterial activity of some target compounds of the present invention are as follows:
(§2) Drugs: firstly being dissolved in DMSO, and then being diluted to an appropriate concentration with sterile water, and afterwards successively being diluted for twice.
(§3) Determination: referencing the standard of CSSI 2008 version, using a agar two times dilution method, determine the minimum inhibitory concentration (MIC values).
(§4) Feces enterococci (VSE clinical isolates: MEFA 0039); Streptococcus pneumoniae (PISP: ATCC 49619).
(§5) 3. Positive Control Drug is Vancomycin Hydrochloride.

[2] = system: Streptococcus pneumoniae (PISP: ATCC 49619); experiment: as above; type: cell-based; conditions: agar dilution; PISP ATCC 49619
Source text: as §1, §2, §3, §4, §5

CNC(CC(C)C)C(=O)NC1C(=O)NC(CC(N)=O)C(=O)NC2C(=O)NC3C(=O)NC(C(=O)NC(C(=O)O)c4cc(O)c(CNCP(=O)(O)O)c(O)c4-c4cc3ccc4O)C(OC3CC(C)(N)C(O)C(C)O3)c3ccc(c(Cl)c3)Oc3cc2cc(c3OC2OC(CO)C(O)C(O)C2OC2CC(C)(N)C(O)C(C)O2)Oc2ccc(cc2Cl)C1O (stereo not shown) [Compound I1]
MIC Values of Compounds, Enterococci [1]: 0.5 µg/mL
MIC Values of Compounds, Streptococcus pneumoniae [2]: 0.125 µg/mL

CNC(CC(C)C)C(=O)NC1C(=O)NC(CC(N)=O)C(=O)NC2C(=O)NC3C(=O)NC(C(=O)NC(C(=O)O)c4cc(O)c(CN5CCOCC5)c(O)c4-c4cc3ccc4O)C(OC3CC(C)(N)C(O)C(C)O3)c3ccc(c(Cl)c3)Oc3cc2cc(c3OC2OC(CO)C(O)C(O)C2OC2CC(C)(NCc3ccc(OC)cc3)C(O)C(C)O2)Oc2ccc(cc2Cl)C1O (stereo not shown) [Compound I12]
MIC Values of Compounds, Enterococci [1]: 2 µg/mL
MIC Values of Compounds, Streptococcus pneumoniae [2]: 1 µg/mL

CCN(CC)Cc1c(O)cc2c(c1O)-c1cc(ccc1O)C1NC(=O)C3NC(=O)C(CC(N)=O)NC(=O)C(N4CN(C)C(CC(C)C)C4=O)C(O)c4ccc(c(Cl)c4)Oc4cc3cc(c4OC3OC(CO)C(O)C(O)C3OC3CC(C)(NCc4ccccc4Br)C(O)C(C)O3)Oc3ccc(cc3Cl)C(OC3CC(C)(N)C(O)C(C)O3)C(NC1=O)C(=O)NC2C(=O)O (stereo not shown) [II2]
MIC Values of Compounds, Enterococci [1]: 2 µg/mL
MIC Values of Compounds, Streptococcus pneumoniae [2]: 0.5 µg/mL

CCCCNCc1c(O)cc2c(c1O)-c1cc(ccc1O)C1NC(=O)C3NC(=O)C(CC(N)=O)NC(=O)C(NC(=O)C(CC(C)C)NC)C(O)c4ccc(c(Cl)c4)Oc4cc3cc(c4OC3OC(CO)C(O)C(O)C3OC3CC(C)(NCc4ccc(Br)cc4)C(O)C(C)O3)Oc3ccc(cc3Cl)C(OC3CC(C)(N)C(O)C(C)O3)C(NC1=O)C(=O)NC2C(=O)O (stereo not shown) [Compound I11]
MIC Values of Compounds, Enterococci [1]: 1 µg/mL
MIC Values of Compounds, Streptococcus pneumoniae [2]: 0.25 µg/mL

CCCCNCc1c(O)cc2c(c1O)-c1cc(ccc1O)C1NC(=O)C3NC(=O)C(CC(N)=O)NC(=O)C(N4CN(C)C(CC(C)C)C4=O)C(O)c4ccc(c(Cl)c4)Oc4cc3cc(c4OC3OC(CO)C(O)C(O)C3OC3CC(C)(N)C(O)C(C)O3)Oc3ccc(cc3Cl)C(OC3CC(C)(N)C(O)C(C)O3)C(NC1=O)C(=O)NC2C(=O)O (stereo not shown) [II1]
MIC Values of Compounds, Enterococci [1]: 0.25 µg/mL
MIC Values of Compounds, Streptococcus pneumoniae [2]: 0.125 µg/mL

CCCCNCc1c(O)cc2c(c1O)-c1cc(ccc1O)C1NC(=O)C3NC(=O)C(CC(N)=O)NC(=O)C(NC(=O)C(CC(C)C)NC)C(O)c4ccc(c(Cl)c4)Oc4cc3cc(c4OC3OC(CO)C(O)C(O)C3OC3CC(C)(NCc4ccccc4Br)C(O)C(C)O3)Oc3ccc(cc3Cl)C(OC3CC(C)(N)C(O)C(C)O3)C(NC1=O)C(=O)NC2C(=O)O (stereo not shown) [Compound I7]
MIC Values of Compounds, Enterococci [1]: 1 µg/mL
MIC Values of Compounds, Streptococcus pneumoniae [2]: 0.5 µg/mL

CC(C)CC1C(=O)N(C2C(=O)NC(CC(N)=O)C(=O)NC3C(=O)NC4C(=O)NC(C(=O)NC(C(=O)O)c5cc(O)c(CN6CCOCC6)c(O)c5-c5cc4ccc5O)C(OC4CC(C)(N)C(O)C(C)O4)c4ccc(c(Cl)c4)Oc4cc3cc(c4OC3OC(CO)C(O)C(O)C3OC3CC(C)(NCc4ccc(C(C)C)cc4)C(O)C(C)O3)Oc3ccc(cc3Cl)C2O)CN1C (stereo not shown) [II9]
MIC Values of Compounds, Enterococci [1]: 1 µg/mL
MIC Values of Compounds, Streptococcus pneumoniae [2]: 0.25 µg/mL

CCN(CC)Cc1c(O)cc2c(c1O)-c1cc(ccc1O)C1NC(=O)C3NC(=O)C(CC(N)=O)NC(=O)C(N4CN(C)C(CC(C)C)C4=O)C(O)c4ccc(c(Cl)c4)Oc4cc3cc(c4OC3OC(CO)C(O)C(O)C3OC3CC(C)(NCc4cccc(Br)c4)C(O)C(C)O3)Oc3ccc(cc3Cl)C(OC3CC(C)(N)C(O)C(C)O3)C(NC1=O)C(=O)NC2C(=O)O (stereo not shown) [II4]
MIC Values of Compounds, Enterococci [1]: 2 µg/mL
MIC Values of Compounds, Streptococcus pneumoniae [2]: 0.25 µg/mL

From patent US9982019B2, “Glycopeptide compound or pharmaceutical salt thereof and method for preparing same, and pharmaceutical compositions and applications thereof” (priority 2012, dated 2018)
